# Measured values: ChEMBL document CHEMBL1201862, “PubChem BioAssay data set” (2004)
#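 Results reflect a 48-hour exposure of cells in 96-well plates to compound at five concentrations. GI50: concentration for 50% inhibition of growth.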 Activity calls are given as the source filed them. Rule as the data show it: active = GI50 up to about 1.1 µM and inactive = higher.
# Key:
# Test in all cases: NCI-60 cell line screen, 48 h
# SW-620 = system: SW-620
# HCT-116 = system: HCT-116
# HT-29 = system: HT-29
# SF-268 = system: SF-268
# Malme-3M = system: Malme-3M
# NCI/ADR-RES = system: NCI/ADR-RES
# NCI-H23 = system: NCI-H23
# OVCAR-5 = system: OVCAR-5
# CCRF-CEM = system: CCRF-CEM
# UACC-257 = system: UACC-257
# OVCAR-3 = system: OVCAR-3
# MDA-N = system: MDA-N
# TK-10 = system: TK-10
# NCI-H522 = system: NCI-H522
# NCI-H460 = system: NCI-H460
# EKVX = system: EKVX
# RXF 393 = system: RXF 393
# MOLT-4 = system: MOLT-4
# COLO 205 = system: COLO 205
# SR = system: SR
# BT-549 = system: BT-549
# A549 = system: A549
# MDA-MB-231 = system: MDA-MB-231
# SK-MEL-2 = system: SK-MEL-2
# KM12 = system: KM12
# SF-539 = system: SF-539
# HOP-62 = system: HOP-62
# OVCAR-8 = system: OVCAR-8
# RPMI-8226 = system: RPMI-8226
# M14 = system: M14
# SNB-19 = system: SNB-19
# HL-60 = system: HL-60
# SK-MEL-5 = system: SK-MEL-5
# 786-0 = system: 786-0
# SK-OV-3 = system: SK-OV-3
# HCT-15 = system: HCT-15
# U-251 = system: U-251
# K562 = system: K562
# SNB-75 = system: SNB-75
# UACC-62 = system: UACC-62
# A498 = system: A498
# CAKI-1 = system: CAKI-1
# MDA-MB-435 = system: MDA-MB-435
# DU-145 = system: DU-145
# SK-MEL-28 = system: SK-MEL-28
# IGROV-1 = system: IGROV-1
# ACHN = system: ACHN
# SF-295 = system: SF-295
# PC-3 = system: PC-3
# SN12C = system: SN12C
# MCF7 = system: MCF7
# LOX IMVI = system: LOX IMVI
# Hs-578T = system: Hs-578T
# HCC 2998 = system: HCC 2998
# HOP-92 = system: HOP-92
# UO-31 = system: UO-31
# T47D = system: T47D
# NCI-H226 = system: NCI-H226
# OVCAR-4 = system: OVCAR-4
compound,measurement,setting,value
Cc1nc2sccn2c1/C=C1/C(=O)Nc2cccc(Cl)c21,GI50,SW-620,41.4 µM (inactive)
same,GI50,HCT-116,89.9 µM (inactive)
same,GI50,HT-29,56.2 µM (inactive)
same,GI50,SF-268,> 100 µM (inactive)
same,GI50,Malme-3M,> 100 µM (inactive)
same,GI50,NCI/ADR-RES,34.2 µM (inactive)
same,GI50,NCI-H23,> 100 µM (inactive)
same,GI50,OVCAR-5,73.5 µM (inactive)
same,GI50,CCRF-CEM,> 100 µM (inactive)
same,GI50,UACC-257,> 100 µM (inactive)
same,GI50,OVCAR-3,> 100 µM (inactive)
same,GI50,MDA-N,12.6 µM (inactive)
same,GI50,TK-10,> 100 µM (inactive)
same,GI50,NCI-H522,45.8 µM (inactive)
same,GI50,NCI-H460,92 µM (inactive)
same,GI50,EKVX,79.6 µM (inactive)
same,GI50,RXF 393,> 100 µM (inactive)
same,GI50,MOLT-4,> 100 µM (inactive)
same,GI50,COLO 205,71.4 µM (inactive)
same,GI50,SR,61.9 µM (inactive)
same,GI50,BT-549,> 100 µM (inactive)
same,GI50,A549,> 100 µM (inactive)
same,GI50,MDA-MB-231,50.4 µM (inactive)
same,GI50,SK-MEL-2,> 100 µM (inactive)
same,GI50,KM12,38.3 µM (inactive)
same,GI50,SF-539,> 100 µM (inactive)
same,GI50,HOP-62,> 100 µM (inactive)
same,GI50,OVCAR-8,> 100 µM (inactive)
same,GI50,RPMI-8226,> 100 µM (inactive)
same,GI50,M14,> 100 µM (inactive)
same,GI50,SNB-19,> 100 µM (inactive)
same,GI50,HL-60,52.7 µM (inactive)
same,GI50,SK-MEL-5,45.7 µM (inactive)
same,GI50,786-0,> 100 µM (inactive)
same,GI50,SK-OV-3,> 100 µM (inactive)
same,GI50,HCT-15,47.2 µM
same,GI50,U-251,> 100 µM (inactive)
same,GI50,K562,45.3 µM (inactive)
same,GI50,SNB-75,> 100 µM (inactive)
same,GI50,UACC-62,> 100 µM (inactive)
same,GI50,A498,87.3 µM (inactive)
same,GI50,CAKI-1,> 100 µM (inactive)
same,GI50,MDA-MB-435,11.6 µM (inactive)
same,GI50,DU-145,> 100 µM (inactive)
same,GI50,SK-MEL-28,> 100 µM (inactive)
same,GI50,IGROV-1,53.6 µM (inactive)
same,GI50,ACHN,> 100 µM (inactive)
same,GI50,SF-295,51.6 µM (inactive)
same,GI50,PC-3,80.7 µM (inactive)
same,GI50,SN12C,> 100 µM (inactive)
same,GI50,MCF7,23 µM (inactive)
same,GI50,LOX IMVI,> 100 µM (inactive)
same,GI50,Hs-578T,> 100 µM (inactive)
same,GI50,HCC 2998,> 100 µM (inactive)
same,GI50,HOP-92,> 100 µM (inactive)
same,GI50,UO-31,> 100 µM (inactive)
same,GI50,T47D,38.6 µM (inactive)
CCNC(=O)Cc1nc2c(N)ncnc2n1C1OC(CO)C(O)C1O (centres undefined),GI50,SW-620,> 100 µM (inactive)
same,GI50,HCT-116,> 100 µM (inactive)
same,GI50,HT-29,> 100 µM (inactive)
same,GI50,SF-268,> 100 µM (inactive)
same,GI50,Malme-3M,> 100 µM (inactive)
same,GI50,NCI/ADR-RES,> 100 µM (inactive)
same,GI50,NCI-H23,> 100 µM (inactive)
same,GI50,NCI-H226,> 100 µM (inactive)
same,GI50,CCRF-CEM,> 10 µM (inactive)
same,GI50,UACC-257,> 100 µM (inactive)
same,GI50,OVCAR-3,> 100 µM (inactive)
same,GI50,MDA-N,> 100 µM (inactive)
same,GI50,TK-10,> 100 µM (inactive)
same,GI50,NCI-H522,> 100 µM (inactive)
same,GI50,NCI-H460,> 100 µM (inactive)
same,GI50,EKVX,> 100 µM (inactive)
same,GI50,MOLT-4,> 100 µM (inactive)
same,GI50,COLO 205,74 µM (inactive)
same,GI50,SR,> 100 µM (inactive)
same,GI50,OVCAR-4,23.5 µM (inactive)
same,GI50,BT-549,> 100 µM (inactive)
same,GI50,A549,> 100 µM (inactive)
same,GI50,MDA-MB-231,> 100 µM (inactive)
same,GI50,SK-MEL-2,48.6 µM (inactive)
same,GI50,KM12,> 100 µM (inactive)
same,GI50,SF-539,> 100 µM (inactive)
same,GI50,HOP-62,> 100 µM (inactive)
same,GI50,OVCAR-8,> 100 µM (inactive)
same,GI50,RPMI-8226,> 100 µM (inactive)
same,GI50,M14,> 100 µM (inactive)
same,GI50,SNB-19,> 100 µM (inactive)
same,GI50,HL-60,91.4 µM (inactive)
same,GI50,SK-MEL-5,> 100 µM (inactive)
same,GI50,786-0,> 100 µM (inactive)
same,GI50,SK-OV-3,39 µM (inactive)
same,GI50,HCT-15,> 100 µM
same,GI50,U-251,> 100 µM (inactive)
same,GI50,K562,> 100 µM (inactive)
same,GI50,UACC-62,> 100 µM (inactive)
same,GI50,A498,> 100 µM (inactive)
same,GI50,CAKI-1,> 100 µM (inactive)
same,GI50,MDA-MB-435,> 100 µM (inactive)
same,GI50,DU-145,> 100 µM (inactive)
same,GI50,SK-MEL-28,> 100 µM (inactive)
same,GI50,IGROV-1,> 100 µM (inactive)
same,GI50,ACHN,> 100 µM (inactive)
same,GI50,SF-295,> 100 µM (inactive)
same,GI50,PC-3,> 100 µM (inactive)
same,GI50,SN12C,> 100 µM (inactive)
same,GI50,MCF7,23.3 µM (inactive)
same,GI50,LOX IMVI,> 100 µM (inactive)
same,GI50,Hs-578T,> 100 µM (inactive)
same,GI50,HCC 2998,95.7 µM (inactive)
same,GI50,HOP-92,> 100 µM (inactive)
same,GI50,UO-31,> 100 µM (inactive)
same,GI50,T47D,58.6 µM (inactive)
Cc1cc(-c2nc3cc(F)c(F)cc3s2)ccc1N,GI50,SW-620,> 60.5 µM (inactive)
same,GI50,HCT-116,> 55.6 µM (inactive)
same,GI50,HT-29,> 61.1 µM (inactive)
same,GI50,SF-268,> 100 µM (inactive)
same,GI50,Malme-3M,> 100 µM (inactive)
same,GI50,NCI/ADR-RES,> 59.3 µM (inactive)
same,GI50,NCI-H23,> 70.6 µM (inactive)
same,GI50,OVCAR-5,> 53.8 µM (inactive)
same,GI50,CCRF-CEM,> 35.6 µM (inactive)
same,GI50,UACC-257,> 73.1 µM (inactive)
same,GI50,OVCAR-3,> 50.5 µM (inactive)
same,GI50,MDA-N,> 56.6 µM (inactive)
same,GI50,TK-10,0.0312 µM (active)
same,GI50,NCI-H522,48.6 µM (inactive)
same,GI50,NCI-H460,> 100 µM (inactive)
same,GI50,EKVX,> 79.8 µM (inactive)
same,GI50,RXF 393,58.3 µM (inactive)
same,GI50,MOLT-4,> 49.9 µM (inactive)
same,GI50,COLO 205,23.7 µM (inactive)
same,GI50,SR,> 100 µM (inactive)
same,GI50,OVCAR-4,60.7 µM (inactive)
same,GI50,BT-549,> 100 µM (inactive)
same,GI50,A549,> 55.5 µM (inactive)
same,GI50,MDA-MB-231,> 100 µM (inactive)
same,GI50,SK-MEL-2,> 58.5 µM (inactive)
same,GI50,KM12,> 69.2 µM (inactive)
same,GI50,HOP-62,39.7 µM (inactive)
same,GI50,OVCAR-8,> 45.4 µM (inactive)
same,GI50,RPMI-8226,> 63.4 µM (inactive)
same,GI50,M14,> 55.2 µM (inactive)
same,GI50,SNB-19,> 59.2 µM (inactive)
same,GI50,HL-60,> 41.6 µM (inactive)
same,GI50,SK-MEL-5,64 µM (inactive)
same,GI50,786-0,> 65.2 µM (inactive)
same,GI50,SK-OV-3,> 64 µM (inactive)
same,GI50,HCT-15,> 61.4 µM
same,GI50,U-251,> 45.4 µM (inactive)
same,GI50,K562,> 42.5 µM (inactive)
same,GI50,SNB-75,51.9 µM (inactive)
same,GI50,UACC-62,> 100 µM (inactive)
same,GI50,A498,> 100 µM (inactive)
same,GI50,CAKI-1,> 45 µM (inactive)
same,GI50,MDA-MB-435,> 55.3 µM (inactive)
same,GI50,DU-145,> 67.6 µM (inactive)
same,GI50,SK-MEL-28,> 100 µM (inactive)
same,GI50,ACHN,> 79.1 µM (inactive)
same,GI50,SF-295,> 48.2 µM (inactive)
same,GI50,PC-3,> 52.5 µM (inactive)
same,GI50,SN12C,> 74.6 µM (inactive)
same,GI50,MCF7,< 0.0123 µM (active)
same,GI50,LOX IMVI,> 82.4 µM (inactive)
same,GI50,Hs-578T,61.1 µM (inactive)
same,GI50,HCC 2998,> 42.4 µM (inactive)
same,GI50,HOP-92,> 100 µM (inactive)
same,GI50,UO-31,> 59.4 µM (inactive)
same,GI50,T47D,< 0.015 µM (active)
